Laboratory results as given in ChEMBL document CHEMBL2010795, “Anti-inflammatory and anti-arthritic effects of new synthetic 3-(4-hydroxyphenyl)-4-(4-thiomethoxyphenyl)-1H-pyrrole-2,5-dione” (2012).
Activity calls are given as the source filed them.

Key:
RAW264.7 [1] = assay: Inhibition of LPS-induced IL-1 beta production in mouse RAW264.7 cells at 10 to 40 uM treated 1 hr before LPS challenge measured after 24 hrs by EIA; type: functional, cell-based
Rattus norvegicus [2] = assay: Antiinflammatory activity in rat assessed as inhibition of carrageenan-induced myeloperoxidase activity in hind paw at 25 mg/kg, po administered 1 hr before carrageenan challenge measured up to 5 hrs by EIA; type: functional, organism-based; design: dose 25 mg/kg
Rattus norvegicus [3] = assay: Antiarthritic activity in Freund's complete adjuvant-induced Sprague-Dawley rat arthritis model at 50 mg/kg, po administered daily on day 9 to day 19 post challenge; type: functional, organism-based; design: dose 50 mg/kg
RAW264.7 [4] = assay: Effect on COX-2 protein expression in LPS-stimulated mouse RAW264.7 cells at 10 to 40 uM preincubated for 1 hr prior LPS challenge measured after 24 hrs by Western blot analysis; type: functional, cell-based
RAW264.7 [5] = assay: Effect on COX-1 protein expression in LPS-stimulated mouse RAW264.7 cells; type: functional, cell-based
Rattus norvegicus [6] = assay: Antiinflammatory activity in rat assessed as inhibition of carrageenan-induced PGE2 production in hind paw at 25 mg/kg, po administered 1 hr before carrageenan challenge measured up to 5 hrs by EIA; type: functional, organism-based; design: dose 25 mg/kg
[7] = biological target: T1, Prostaglandin G/H synthase 1 (Ovis aries) (UniProt P05979); assay: Inhibition of ovine recombinant COX1 assessed as PGF2alpha production at 0.1 to 40 uM preincubated for 10 mins before substrate addition by EIA
T1 sequence (whole entry): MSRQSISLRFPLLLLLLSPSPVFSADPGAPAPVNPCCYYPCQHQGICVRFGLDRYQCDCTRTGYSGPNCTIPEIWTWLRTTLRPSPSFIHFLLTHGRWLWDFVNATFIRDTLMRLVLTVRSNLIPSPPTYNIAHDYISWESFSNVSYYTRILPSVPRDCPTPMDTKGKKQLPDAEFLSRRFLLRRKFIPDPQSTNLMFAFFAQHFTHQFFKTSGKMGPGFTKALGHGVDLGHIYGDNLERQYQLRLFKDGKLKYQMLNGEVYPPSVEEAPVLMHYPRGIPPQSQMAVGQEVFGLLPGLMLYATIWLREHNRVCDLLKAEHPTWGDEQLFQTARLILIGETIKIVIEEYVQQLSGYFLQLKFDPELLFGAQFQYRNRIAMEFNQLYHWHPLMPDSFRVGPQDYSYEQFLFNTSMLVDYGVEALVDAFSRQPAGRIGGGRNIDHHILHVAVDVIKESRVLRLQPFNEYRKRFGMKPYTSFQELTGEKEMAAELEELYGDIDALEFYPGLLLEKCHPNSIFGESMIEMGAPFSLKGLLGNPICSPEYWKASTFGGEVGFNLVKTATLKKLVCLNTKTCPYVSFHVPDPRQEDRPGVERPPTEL

Rattus norvegicus [8] = assay: Antiarthritic activity in Freund's complete adjuvant-induced Sprague-Dawley rat arthritis model assessed as inhibition of ankle swelling at 25 to 50 mg/kg, po administered daily on day 9 to day 19 post challenge; type: functional, organism-based
RAW264.7 [9] = assay: Inhibition of LPS-induced PGE2 production in mouse RAW264.7 cells treated 1 hr before LPS challenge measured after 24 hrs by EIA; type: functional, cell-based
RAW264.7 [10] = assay: Inhibition of LPS-induced nitric oxide production in mouse RAW264.7 cells at 10 to 40 uM treated 1 hr before LPS challenge measured after 24 hrs by Griess method; type: functional, cell-based
RAW264.7 [11] = assay: Effect on COX-1 mRNA expression in LPS-stimulated mouse RAW264.7 cells; type: functional, cell-based
Rattus norvegicus [12] = assay: Antiarthritic activity in Freund's complete adjuvant-induced Sprague-Dawley rat arthritis model at 25 mg/kg, po administered daily on day 9 to day 19 post challenge; type: functional, organism-based; design: dose 25 mg/kg
Rattus norvegicus [13] = assay: Antiarthritic activity in Freund's complete adjuvant-induced Sprague-Dawley rat arthritis model assessed as reduction in plasma PGE2 levels at 50 mg/kg, po administered daily on day 9 to day 19 post challenge measured after 19 days by EIA; type: functional; design: scale not given: the % may be the effect or the level left
Rattus norvegicus [14] = assay: Antiarthritic activity in Freund's complete adjuvant-induced Sprague-Dawley rat arthritis model assessed as inhibition of joint dysfunction at 25 to 50 mg/kg, po administered daily on day 9 to day 19 post challenge; type: functional, organism-based
[15] = biological target: T2, Prostaglandin G/H synthase 2 (Homo sapiens) (UniProt P35354); assay: Inhibition of human recombinant COX2 assessed as PGF2alpha production preincubated for 10 mins before substrate addition by EIA
T2 sequence (whole entry): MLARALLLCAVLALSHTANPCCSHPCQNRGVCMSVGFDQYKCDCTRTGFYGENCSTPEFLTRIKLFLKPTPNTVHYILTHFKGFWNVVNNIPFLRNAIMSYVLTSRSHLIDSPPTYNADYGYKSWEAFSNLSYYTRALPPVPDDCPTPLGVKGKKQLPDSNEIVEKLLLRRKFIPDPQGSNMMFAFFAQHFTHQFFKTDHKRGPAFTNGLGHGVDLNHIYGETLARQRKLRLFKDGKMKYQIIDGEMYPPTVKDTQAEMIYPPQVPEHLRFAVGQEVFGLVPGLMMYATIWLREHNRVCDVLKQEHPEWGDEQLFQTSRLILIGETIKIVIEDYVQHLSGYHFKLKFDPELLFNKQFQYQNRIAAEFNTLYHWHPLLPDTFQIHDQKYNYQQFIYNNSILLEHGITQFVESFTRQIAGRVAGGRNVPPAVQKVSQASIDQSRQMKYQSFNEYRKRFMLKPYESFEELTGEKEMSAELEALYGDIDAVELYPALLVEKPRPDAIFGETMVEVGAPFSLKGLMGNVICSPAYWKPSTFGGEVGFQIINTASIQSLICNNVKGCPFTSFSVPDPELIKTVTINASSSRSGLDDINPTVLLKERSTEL

Rattus norvegicus [16] = assay: Antiarthritic activity in Freund's complete adjuvant-induced Sprague-Dawley rat arthritis model assessed as reduction in IL-6 mRNA expression at 50 mg/kg, po administered daily on day 9 to day 19 post challenge measured on day 20 by RT-PCR analysis; type: functional, organism-based; design: dose 50 mg/kg
RAW264.7 [17] = assay: Inhibition of iNOS protein expression in mouse RAW264.7 cells assessed as reduction in NO production by Western blot analysis; type: functional, cell-based
Rattus norvegicus [18] = assay: Antiarthritic activity in Freund's complete adjuvant-induced Sprague-Dawley rat arthritis model assessed as reduction in IL-1beta mRNA expression at 50 mg/kg, po administered daily on day 9 to day 19 post challenge measured on day 20 by RT-PCR analysis; type: functional, organism-based; design: dose 50 mg/kg
RAW264.7 [19] = assay: Effect on COX-2 mRNA expression in LPS-stimulated mouse RAW264.7 cells at 10 to 40 uM preincubated for 1 hr prior LPS challenge measured after 4 hrs by RT-PCR analysis; type: functional, cell-based
Rattus norvegicus [20] = assay: Antiinflammatory activity in rat assessed as inhibition of carrageenan-induced hind paw edema at 50 mg/kg, po administered 1 hr before carrageenan challenge measured up to 5 hrs by plethysmometer; type: functional, organism-based; design: dose 50 mg/kg
RAW264.7 [21] = assay: Inhibition of LPS-induced IL-1 beta mRNA expression in mouse RAW264.7 cells at 10 to 40 uM treated 1 hr before LPS challenge measured after 24 hrs by RT-PCR analysis; type: functional, cell-based
Rattus norvegicus [22] = assay: Antiarthritic activity in Freund's complete adjuvant-induced Sprague-Dawley rat arthritis model assessed as inhibition of edema at 25 to 50 mg/kg, po administered daily on day 9 to day 19 post challenge; type: functional, organism-based
Rattus norvegicus [23] = assay: Antiarthritic activity in Freund's complete adjuvant-induced Sprague-Dawley rat arthritis model assessed as reduction in paw volume at 50 mg/kg, po administered daily on day 9 to day 19 post challenge; type: functional; design: scale not given: the % may be the effect or the level left
Rattus norvegicus [24] = assay: Antiarthritic activity in Freund's complete adjuvant-induced Sprague-Dawley rat arthritis model assessed as inhibition of erythema at 25 to 50 mg/kg, po administered daily on day 9 to day 19 post challenge; type: functional, organism-based
RAW264.7 [25] = assay: Inhibition of LPS-induced IL-6 mRNA expression in mouse RAW264.7 cells at 10 to 40 uM treated 1 hr before LPS challenge measured after 24 hrs by RT-PCR analysis; type: functional, cell-based
Rattus norvegicus [26] = assay: Antiinflammatory activity in rat assessed as inhibition of carrageenan-induced hind paw edema at 25 mg/kg, po administered 1 hr before carrageenan challenge measured up to 5 hrs by plethysmometer; type: functional, organism-based; design: dose 25 mg/kg
RAW264.7 [27] = assay: Inhibition of LPS-induced IL-6 production in mouse RAW264.7 cells at 10 to 40 uM treated 1 hr before LPS challenge measured after 24 hrs by EIA; type: functional, cell-based
RAW264.7 [28] = assay: Inhibition of LPS-induced iNOS mRNA expression in mouse RAW264.7 cells assessed as reduction in NO production at 10 to 40 uM treated 1 hr before LPS challenge measured after 4 hrs by RT-PCR analysis; type: functional, cell-based

CSc1ccc(C2=C(c3ccc(O)cc3)C(=O)NC2=O)cc1
53%: Activity (Rattus norvegicus [23])
inactive: inhibition (RAW264.7 [4]) | inhibition (RAW264.7 [5]) | inhibition [7] | inhibition (RAW264.7 [11]) | inhibition (RAW264.7 [19])
active: inhibition (RAW264.7 [1]) | inhibition (Rattus norvegicus [2]) | Activity (Rattus norvegicus [3]) | inhibition (Rattus norvegicus [6]) | inhibition (Rattus norvegicus [8]) | inhibition (RAW264.7 [9]) Dose-dependent effect | inhibition (RAW264.7 [10]) | Activity (Rattus norvegicus [12]) | inhibition (Rattus norvegicus [14]) | inhibition [15] Dose-dependent effect | Activity (Rattus norvegicus [16]) | inhibition (RAW264.7 [17]) | Activity (Rattus norvegicus [18]) | inhibition (Rattus norvegicus [20]) | inhibition (RAW264.7 [21]) | inhibition (Rattus norvegicus [22]) | inhibition (Rattus norvegicus [24]) | inhibition (RAW264.7 [25]) | inhibition (Rattus norvegicus [26]) | inhibition (RAW264.7 [27]) | inhibition (RAW264.7 [28])
42%: Activity (Rattus norvegicus [13])

CC(C)Cc1ccc(C(C)C(=O)O)cc1 (stereo not given)
active: Activity (Rattus norvegicus [3]) | inhibition (Rattus norvegicus [20])
